The target in experiment [1] is WRN (BV08), human Werner helicase (Uniprot Q14191, amino acids 517-1235 with L1074F point mutation) (Homo sapiens (Human), UniProt Q14191, L1074F). In words: WRN (BV08) ADP-Glo assay. In kind it is biochemical. To be noted: class symbols A-E, read-out: ADP-Glo_hWRN_IC50.
Experiment [2] has as its system p21 induction in HCT116 cells. In words: p21 induction in HCT116 cells. The format is cell-based. Particulars: Homo sapiens, HCT-116, 24 h, HCT116 cells, 24 h compound incubation; read-out: P21_EC50. Summed up: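 HCT116 cells, 2,000/well, treated 24 h at 37 °C with 11-point compound dilutions in duplicate. Fixed, then immunostained for p21 and GAPDH and read by near-IR imaging at 800/700 nm. Normalized to DMSO (low) and reference WRN inhibitor (high) controls; EC50 from non-linear regression.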

WRN (BV08), human Werner helicase (Uniprot Q14191, amino acids 517-1235 with L1074F point mutation), sequence (Q14191 other isoform, or with tags, fused parts or gaps L1074F (already in the parent)): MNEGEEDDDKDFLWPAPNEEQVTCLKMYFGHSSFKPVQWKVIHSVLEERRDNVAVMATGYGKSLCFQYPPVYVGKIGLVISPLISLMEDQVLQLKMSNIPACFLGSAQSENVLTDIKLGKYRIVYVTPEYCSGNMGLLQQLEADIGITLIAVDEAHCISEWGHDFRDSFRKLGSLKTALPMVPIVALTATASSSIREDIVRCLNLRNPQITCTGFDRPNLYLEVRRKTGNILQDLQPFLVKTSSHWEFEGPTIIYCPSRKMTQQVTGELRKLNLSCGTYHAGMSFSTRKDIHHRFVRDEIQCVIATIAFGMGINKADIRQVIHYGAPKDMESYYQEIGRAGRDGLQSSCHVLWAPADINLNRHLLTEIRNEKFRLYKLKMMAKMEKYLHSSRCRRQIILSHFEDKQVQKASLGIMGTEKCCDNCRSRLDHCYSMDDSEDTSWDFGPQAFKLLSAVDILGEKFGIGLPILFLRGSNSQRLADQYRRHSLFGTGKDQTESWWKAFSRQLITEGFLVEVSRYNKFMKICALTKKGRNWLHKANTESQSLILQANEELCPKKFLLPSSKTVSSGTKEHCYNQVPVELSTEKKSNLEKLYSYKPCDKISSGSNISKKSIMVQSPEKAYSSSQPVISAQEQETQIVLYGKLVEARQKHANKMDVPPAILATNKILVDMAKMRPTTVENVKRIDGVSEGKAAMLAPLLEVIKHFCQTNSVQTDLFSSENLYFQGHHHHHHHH

With `CCc1c(C23CCN(C(=O)c4ncnc(C)c4O)CC2C3)c(=O)c2nc(N(C)C)cnc2n1CC(=O)Nc1ccc(C(F)(F)F)cc1Cl` (stereo not drawn) [I-229, N-[2-chloro-4-(trifluoromethyl)phenyl]-2-[2-(dimethylamino)-6-ethyl-7-[3-(5-hydroxy-6-methylpyrimidine-4-carbonyl)-3-azabicyclo[4.1.0]heptan-6-yl]-8-oxo-5H,8H-pyrido[2,3-b]pyrazin-5-yl]acetamide], in experiment [1], the IC50 was in the range of 5 to 50 nM. Further, the EC50 in experiment [2] was in the range of 500 to 2000 nM.
Taken in the same sequence, the figures for `CCc1c(N2CCN(C(=O)c3ncnc(C)c3O)[C@H]3CC[C@@H]32)c(=O)c2nc(N(C)C)cnc2n1CC(=O)Nc1cc(F)c(C(F)(F)F)cc1C` [I-236, 2-[2-(dimethylamino)-6-ethyl-7-[(1S,6S)-5-(5-hydroxy-6-methylpyrimidine-4-carbonyl)-2,5-diazabicyclo[4.2.0]octan-2-yl]-8-oxo-5H,8H-pyrido[2,3-b]pyrazin-5-yl]-N-[5-fluoro-2-methyl-4-(trifluoromethyl)phenyl]acetamide] were 5 to 50 nM and less than 500 nM.
Taken in the same sequence, the figures for `CCc1c(N2CCN(C(=O)c3c(OC)ncc(C)c3O)CC2)c(=O)c2nc(C3CC3)cnc2n1CC(=O)Nc1ccc(C(F)(F)F)cc1Cl` [I-239, N-[2-chloro-4-(trifluoromethyl)phenyl]-2-{2-cyclopropyl-6-ethyl-7-[4-(4-hydroxy-2-methoxy-5-methylpyridine-3-carbonyl)piperazin-1-yl]-8-oxo-5H,8H-pyrido[2,3-b]pyrazin-5-yl} acetamide] were 5 to 50 nM and less than 500 nM.
On to `CCc1c(N2CCN(C(=O)c3ncnc(C)c3O)[C@H]3CC[C@@H]32)c(=O)c2nc(N(C)C)cnc2n1CC(=O)Nc1ccc(C(F)F)cc1Cl` [I-240, N-[2-chloro-4-(difluoromethyl)phenyl]-2-[2-(dimethylamino)-6-ethyl-7-[(1S,6S)-5-(5-hydroxy-6-methylpyrimidine-4-carbonyl)-2,5-diazabicyclo[4.2.0]octan-2-yl]-8-oxo-5H,8H-pyrido[2,3-b]pyrazin-5-yl]acetamide], for which the IC50 in experiment [1] was in the range of 5 to 50 nM. The EC50 in experiment [2] was less than 500 nM.
Taken in the same sequence, the figures for `CCc1c(N2CCN(C(=O)c3ncnc(C)c3O)[C@H]3CC[C@@H]32)c(=O)c2nc(-c3ccnn3C)cnc2n1CC(=O)Nc1ccc(C(F)(F)F)cc1Cl` [I-241, N-[2-chloro-4-(trifluoromethyl)phenyl]-2-{6-ethyl-7-[(1S,6S)-5-(5-hydroxy-6-methylpyrimidine-4-carbonyl)-2,5-diazabicyclo[4.2.0]octan-2-yl]-2-(1-methyl-1H-pyrazol-5-yl)-8-oxo-5H,8H-pyrido[2,3-b]pyrazin-5-yl}acetamide] were no more than 5 nM and less than 500 nM.
Taken in the same sequence, the figures for `CCc1c(N2CCN(C(=O)c3ncnc(C)c3O)[C@H]3CC[C@@H]32)c(=O)c2nc(N3CC(OC)C3)cnc2n1CC(=O)Nc1ccc(C(F)(F)F)cc1Cl` [I-242, N-[2-chloro-4-(trifluoromethyl)phenyl]-2-{6-ethyl-7-[(1S,6S)-5-(5-hydroxy-6-methylpyrimidine-4-carbonyl)-2,5-diazabicyclo[4.2.0]octan-2-yl]-2-(3-methoxyazetidin-1-yl)-8-oxo-5H,8H-pyrido[2,3-b]pyrazin-5-yl}acetamide] were 5 to 50 nM and less than 500 nM.
For `CCc1c(N2CCN(C(=O)c3c(OC)ncc(C)c3O)[C@H]3CCC[C@@H]32)c(=O)c2nc(N(C)C)cnc2n1CC(=O)Nc1ccc(C(F)(F)F)cc1Cl` [I-243, 2-{7-[(4aS,7aS)-4-(4-hydroxy-2-methoxy-5-methylpyridine-3-carbonyl)-octahydro-1H-cyclopenta[b]pyrazin-1-yl]-2-(dimethylamino)-6-ethyl-8-oxo-5H,8H-pyrido[2,3-b]pyrazin-5-yl}-N-[2-chloro-4-(trifluoromethyl)phenyl]acetamide] the same measures were 5 to 50 nM and less than 500 nM.
Turning to `CCc1c(N2CCN(C(=O)c3ncnc(C)c3O)C[C@@H]2CO)c(=O)c2nc(N(C)C)cnc2n1CC(=O)Nc1ccc(C(F)(F)F)cc1Cl` [I-244, N-[2-chloro-4-(trifluoromethyl)phenyl]-2-[2-(dimethylamino)-6-ethyl-7-[(2R)-4-(5-hydroxy-6-methylpyrimidine-4-carbonyl)-2-(hydroxymethyl)piperazin-1-yl]-8-oxo-5H,8H-pyrido[2,3-b]pyrazin-5-yl]acetamide], in experiment [1], the IC50 was 5 to 50 nM. The EC50 in experiment [2] was greater than 5000 nM.
For `CCc1c(N2CCN(C(=O)c3ncnc(C)c3O)[C@H]3CC[C@@H]32)c(=O)c2nc(N3CC(F)(F)C3)cnc2n1CC(=O)Nc1ccc(C(F)(F)F)cc1Cl` [I-245, N-[2-chloro-4-(trifluoromethyl)phenyl]-2-[2-(3,3-difluoroazetidin-1-yl)-6-ethyl-7-[(1S,6S)-5-(5-hydroxy-6-methylpyrimidine-4-carbonyl)-2,5-diazabicyclo[4.2.0]octan-2-yl]-8-oxo-5H,8H-pyrido[2,3-b]pyrazin-5-yl]acetamide] the same measures were 5 to 50 nM and less than 500 nM.
For `CCc1c(N2CCN(C(=O)c3ncnc(C)c3O)[C@H]3CC[C@@H]32)c(=O)c2nc(N3CC(C)(O)C3)cnc2n1CC(=O)Nc1ccc(C(F)(F)F)cc1Cl` [I-246, N-[2-chloro-4-(trifluoromethyl)phenyl]-2-[6-ethyl-2-(3-hydroxy-3-methylazetidin-1-yl)-7-[(1S,6S)-5-(5-hydroxy-6-methylpyrimidine-4-carbonyl)-2,5-diazabicyclo[4.2.0]octan-2-yl]-8-oxo-5H,8H-pyrido[2,3-b]pyrazin-5-yl]acetamide] the same measures were 5 to 50 nM and 500 to 2000 nM.
In the case of `CCc1c(N2CCN(C(=O)c3ncnc(C)c3O)CC2(C)C)c(=O)c2nc(N(C)C)cnc2n1CC(=O)Nc1ccc(C(F)(F)F)cc1Cl` [I-249, N-[2-chloro-4-(trifluoromethyl)phenyl]-2-[2-(dimethylamino)-6-ethyl-7-[4-(5-hydroxy-6-methylpyrimidine-4-carbonyl)-2,2-dimethylpiperazin-1-yl]-8-oxo-5H,8H-pyrido[2,3-b]pyrazin-5-yl]acetamide], the IC50 in experiment [1] lay in the range of 5 to 50 nM. Further, the EC50 in experiment [2] was less than 500 nM.
For `CCc1c(N2CCN(C(=O)c3ncnc(C)c3O)[C@H]3CC[C@@H]32)c(=O)c2nc(N3CCOCC3)cnc2n1CC(=O)Nc1ccc(C(F)(F)F)cc1Cl` [I-250, N-[2-chloro-4-(trifluoromethyl)phenyl]-2-{6-ethyl-7-[(1S,6S)-5-(5-hydroxy-6-methylpyrimidine-4-carbonyl)-2,5-diazabicyclo[4.2.0]octan-2-yl]-2-(morpholin-4-yl)-8-oxo-5H,8H-pyrido[2,3-b]pyrazin-5-yl}acetamide] the same measures were 5 to 50 nM and less than 500 nM.
With `CCc1c(N2CCN(C(=O)c3ncnc(C)c3O)[C@H]3CC[C@@H]32)c(=O)c2nc(N3CCCC3=O)cnc2n1CC(=O)Nc1ccc(C(F)(F)F)cc1Cl` [I-253, N-[2-chloro-4-(trifluoromethyl)phenyl]-2-{6-ethyl-7-[(1S,6S)-5-(5-hydroxy-6-methylpyrimidine-4-carbonyl)-2,5-diazabicyclo[4.2.0]octan-2-yl]-8-oxo-2-(2-oxopyrrolidin-1-yl)-5H,8H-pyrido[2,3-b]pyrazin-5-yl}acetamide], the IC50 in experiment [1] lay in the range of 5 to 50 nM. Also, the EC50 in experiment [2] is less than 500 nM.
Turning to `CCc1c(N2CCN(C(=O)c3ncnc(C)c3O)CC2)c(=O)c2nc(C3(C#N)CC3)cnc2n1CC(=O)Nc1ccc(C(F)(F)F)cc1Cl` [I-254, N-[2-chloro-4-(trifluoromethyl)phenyl]-2-[2-(1-cyanocyclopropyl)-6-ethyl-7-[4-(5-hydroxy-6-methylpyrimidine-4-carbonyl)piperazin-1-yl]-8-oxo-5H,8H-pyrido[2,3-b]pyrazin-5-yl]acetamide], the IC50 in experiment [1] is 5 to 50 nM. Moreover, the EC50 in experiment [2] was 500 to 2000 nM.
For `CCc1c(N2CCN(C(=O)c3ncnc(C)c3O)[C@H]3CC[C@@H]32)c(=O)c2nc(N(C)CCOC)cnc2n1CC(=O)Nc1ccc(C(F)(F)F)cc1Cl` [I-255, N-[2-chloro-4-(trifluoromethyl)phenyl]-2-{6-ethyl-7-[(1S,6S)-5-(5-hydroxy-6-methylpyrimidine-4-carbonyl)-2,5-diazabicyclo[4.2.0]octan-2-yl]-2-[(2-methoxyethyl)(methyl)amino]-8-oxo-5H,8H-pyrido[2,3-b]pyrazin-5-yl}acetamide] the same measures were 5 to 50 nM and less than 500 nM.
For the compound `CCc1c(N2CC3CC2CN3C(=O)c2ncnc(C)c2O)c(=O)c2nc(N(C)C)cnc2n1CC(=O)Nc1ccc(C(F)(F)F)cc1Cl` (stereo not drawn) [I-258, N-[2-chloro-4-(trifluoromethyl)phenyl]-2-[2-(dimethylamino)-6-ethyl-7-[5-(5-hydroxy-6-methylpyrimidine-4-carbonyl)-2,5-diazabicyclo[2.2.1]heptan-2-yl]-8-oxo-5H,8H-pyrido[2,3-b]pyrazin-5-yl]acetamide], the IC50 in experiment [1] fell in the range of 100 to 500 nM. In experiment [2], the EC50 is greater than 5000 nM.
Turning to `CCc1c(N2CCN(C(=O)c3cc(C)cnc3OC)[C@H]3CC[C@@H]32)c(=O)c2nc(N(C)C)cnc2n1CC(=O)Nc1ccc(C(F)(F)F)cc1Cl` [I-259, N-[2-chloro-4-(trifluoromethyl)phenyl]-2-[2-(dimethylamino)-6-ethyl-7-[(1S,6S)-5-(2-methoxy-5-methylpyridine-3-carbonyl)-2,5-diazabicyclo[4.2.0]octan-2-yl]-8-oxo-5H,8H-pyrido[2,3-b]pyrazin-5-yl]acetamide], in experiment [1], the IC50 was 5 to 50 nM. Besides, the EC50 in experiment [2] lay within 500 to 2000 nM.
Taken in the same sequence, the figures for `CCc1c(N2CCN(C(=O)c3c(OC)ncc(C)c3O)[C@H]3CC[C@@H]32)c(=O)c2nc(N(C)C)cnc2n1CC(=O)Nc1ccc(C(F)(F)F)cc1Cl` [I-261, N-[2-chloro-4-(trifluoromethyl)phenyl]-2-[2-(dimethylamino)-6-ethyl-7-[(1S,6S)-5-(4-hydroxy-2-methoxy-5-methylpyridine-3-carbonyl)-2,5-diazabicyclo[4.2.0]octan-2-yl]-8-oxo-5H,8H-pyrido[2,3-b]pyrazin-5-yl]acetamide] were 5 to 50 nM and less than 500 nM.

These data come from patent publication US20250034136A1 (Nimbus Wadjet, Inc., priority 2023, published 2025).
